From ChEMBL document CHEMBL4321853, “Multitarget CFTR Modulators Endowed with Multiple Beneficial Side Effects for Cystic Fibrosis Patients: Toward a Simplified Therapeutic Approach †” (J Med Chem, 2019)
≈ marks a conversion by molar mass, not a printed value. One block for each compound: values may come before it. Calls of active or inactive are those of the source. The calls are words filed in the database; no cut-off is given here.

Tests used:
[1] = tested on: Cystic fibrosis transmembrane conductance regulator (Homo sapiens), P13569 [F508del]; assay: Corrector activity at CFTR F508del mutant (unknown origin) transfected in human HEK293 membrane cells assessed as increase in CFTR level at 3 uM incubated for 24 hrs by using pHTomato probe based fluorescence inverted microscopic analysis; type: cell-based
Cystic fibrosis transmembrane conductance regulator (Homo sapiens), P13569 [F508del], sequence (P13569 as listed by the source): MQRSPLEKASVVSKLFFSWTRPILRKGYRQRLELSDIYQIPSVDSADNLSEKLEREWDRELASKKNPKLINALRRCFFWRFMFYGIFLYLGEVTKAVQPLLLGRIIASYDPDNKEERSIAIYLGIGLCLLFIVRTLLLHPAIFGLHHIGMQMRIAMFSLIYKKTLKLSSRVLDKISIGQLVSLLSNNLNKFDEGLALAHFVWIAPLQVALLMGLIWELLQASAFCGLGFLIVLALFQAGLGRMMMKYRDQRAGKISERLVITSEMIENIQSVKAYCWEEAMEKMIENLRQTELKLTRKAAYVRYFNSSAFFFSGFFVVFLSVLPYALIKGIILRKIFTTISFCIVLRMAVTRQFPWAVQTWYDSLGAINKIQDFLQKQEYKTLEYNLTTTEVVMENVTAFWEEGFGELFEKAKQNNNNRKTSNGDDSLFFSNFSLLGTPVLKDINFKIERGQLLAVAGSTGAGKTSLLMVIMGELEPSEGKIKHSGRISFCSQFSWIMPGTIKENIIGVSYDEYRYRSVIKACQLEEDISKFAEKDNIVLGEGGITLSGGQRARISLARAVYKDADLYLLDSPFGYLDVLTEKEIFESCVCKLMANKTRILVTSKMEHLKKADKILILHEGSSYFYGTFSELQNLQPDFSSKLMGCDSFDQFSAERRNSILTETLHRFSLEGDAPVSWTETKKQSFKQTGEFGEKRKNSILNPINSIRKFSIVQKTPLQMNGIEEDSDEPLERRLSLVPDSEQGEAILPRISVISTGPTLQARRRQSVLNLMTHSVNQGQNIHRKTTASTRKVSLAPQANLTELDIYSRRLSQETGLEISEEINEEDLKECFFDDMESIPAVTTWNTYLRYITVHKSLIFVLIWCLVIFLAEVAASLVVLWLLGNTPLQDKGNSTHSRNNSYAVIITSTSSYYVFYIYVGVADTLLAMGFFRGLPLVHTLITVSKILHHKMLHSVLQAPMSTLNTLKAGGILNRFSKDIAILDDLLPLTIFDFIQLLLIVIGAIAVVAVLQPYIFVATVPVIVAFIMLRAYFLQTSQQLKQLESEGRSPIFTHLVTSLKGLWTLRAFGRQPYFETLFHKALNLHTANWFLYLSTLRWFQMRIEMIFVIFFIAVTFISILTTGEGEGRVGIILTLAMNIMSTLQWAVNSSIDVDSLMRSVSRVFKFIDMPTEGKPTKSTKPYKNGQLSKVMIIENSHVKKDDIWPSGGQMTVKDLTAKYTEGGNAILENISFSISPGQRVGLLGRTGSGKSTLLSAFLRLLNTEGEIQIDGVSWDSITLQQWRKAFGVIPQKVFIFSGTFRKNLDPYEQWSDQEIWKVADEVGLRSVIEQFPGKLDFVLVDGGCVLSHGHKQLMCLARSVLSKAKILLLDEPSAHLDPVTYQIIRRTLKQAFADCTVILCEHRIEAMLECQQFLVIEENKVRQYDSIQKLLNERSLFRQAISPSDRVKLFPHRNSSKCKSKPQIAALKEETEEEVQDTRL

[2] = tested on: Enterovirus A71; assay: Antiviral activity against Enterovirus A71 infected in human RD cells assessed as reduction in cytopathic effect incubated for 2 to 3 days by MTS assay; type: functional, organism-based
[3] = Cytotoxicity against human RD cells assessed as reduction in cell viability incubated for 2 to 3 days by MTS assay; type: cell-based
[4] = Aqueous solubility of compound by LC-MS analysis; type: physicochemical; details: buffer
[5] = Apparent permeability of compound by PAMPA assay; type: ADME
[6] = Membrane retention of compound by PAMPA assay; type: ADME
[7] = Metabolic stability in human liver microsomes assessed as compound remaining at 50 uM incubated for 1 hr by UV/LC-MS analysis; type: ADME, Microsome; details: read-out: Stability
[8] = Stability in human plasma assessed as half life measured upto 24 hrs by UV/LC-MS analysis; type: ADME, cell-free
[9] = target: T1, Albumin (Homo sapiens, UniProt P02768); assay: Binding affinity to human serum albumin assessed as dissociation constant incubated for 30 mins by spectrofluorimetry; type: ADME
T1 sequence (P02768 whole entry): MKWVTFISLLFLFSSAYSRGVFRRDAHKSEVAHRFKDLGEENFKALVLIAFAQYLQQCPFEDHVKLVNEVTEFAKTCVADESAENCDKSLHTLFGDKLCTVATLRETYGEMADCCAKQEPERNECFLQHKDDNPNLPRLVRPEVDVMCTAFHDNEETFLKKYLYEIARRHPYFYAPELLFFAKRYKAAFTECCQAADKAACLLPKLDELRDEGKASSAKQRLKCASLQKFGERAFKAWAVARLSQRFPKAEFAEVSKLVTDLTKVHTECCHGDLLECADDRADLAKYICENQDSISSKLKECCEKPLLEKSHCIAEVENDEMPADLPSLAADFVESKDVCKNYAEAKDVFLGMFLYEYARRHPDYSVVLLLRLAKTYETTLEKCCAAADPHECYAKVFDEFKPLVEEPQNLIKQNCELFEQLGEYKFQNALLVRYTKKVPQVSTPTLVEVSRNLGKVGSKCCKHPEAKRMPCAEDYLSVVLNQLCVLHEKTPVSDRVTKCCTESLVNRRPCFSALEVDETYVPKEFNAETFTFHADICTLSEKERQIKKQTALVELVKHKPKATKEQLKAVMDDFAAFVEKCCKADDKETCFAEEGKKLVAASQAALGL

[10] = target: T1, Albumin; assay: Binding affinity to human serum albumin assessed as maximum binding at 0.1 to 500 uM incubated for 30 mins by spectrofluorimetry; type: ADME; details: isolated protein, 0.5 h
[11] = Selectivity index, ratio of CC50 for human RD cells to EC50 for Enterovirus A71 infected in human RD cells; type: toxicity, cell-based; details: read-out: Ratio CC50/EC50
[12] = tested on: Coxsackievirus B3; assay: Antiviral activity against Human coxsackievirus B3 infected in human RD cells assessed as reduction in cytopathic effect incubated for 2 to 3 days by MTS assay; type: functional, organism-based; details: Enterovirus B
[13] = Cytotoxicity against human RD cells infected with Human coxsackievirus B3 assessed as reduction in cell viability incubated for 2 to 3 days by MTS assay; type: cell-based
[14] = tested on: rhinovirus A2; assay: Antiviral activity against Human rhinovirus A2 infected in human RD cells assessed as reduction in cytopathic effect incubated for 2 to 3 days by MTS assay; type: functional, organism-based; details: Rhinovirus A
[15] = Cytotoxicity against human RD cells infected with Human rhinovirus A2 assessed as reduction in cell viability incubated for 2 to 3 days by MTS assay; type: cell-based
[16] = tested on: rhinovirus B14; assay: Antiviral activity against Human rhinovirus B14 infected in human RD cells assessed as reduction in cytopathic effect incubated for 2 to 3 days by MTS assay; type: functional, organism-based; details: Rhinovirus B
[17] = Cytotoxicity against human RD cells infected with Human rhinovirus B14 assessed as reduction in cell viability incubated for 2 to 3 days by MTS assay; type: cell-based
[18] = Acute toxicity in C57BL/6 mouse assessed as effect on motor coordination upto 180 mg/kg, sc observed for 15 days; type: organism-based; details: in vivo, 360 h
[19] = Acute toxicity in C57BL/6 mouse assessed as effect on behavior changes upto 180 mg/kg, sc observed for 15 days; type: organism-based; details: in vivo, 360 h
[20] = Acute toxicity in C57BL/6 mouse assessed as body weight loss upto 180 mg/kg, sc observed for 15 days; type: organism-based; details: in vivo, 360 h
[21] = Toxicity in C57BL/6 mouse assessed as effect on alveolar microstructure upto 180 mg/kg, sc observed after 4 and 72 hrs by hematoxylin and eosin staining based microscopy; type: organism-based; details: in vivo
[22] = Toxicity in C57BL/6 mouse assessed as alveolar/interstitial inflammatory infiltrate upto 180 mg/kg, sc observed after 4 and 72 hrs by hematoxylin and eosin staining based microscopy; type: organism-based; details: in vivo
[23] = Toxicity in C57BL/6 mouse assessed as hemorrhage in lung upto 180 mg/kg, sc observed after 4 and 72 hrs by hematoxylin and eosin staining based microscopy; type: organism-based; details: in vivo
[24] = Toxicity in C57BL/6 mouse assessed as effect on columnar lining cell upto 180 mg/kg, sc observed after 4 and 72 hrs by hematoxylin and eosin staining based microscopy; type: organism-based; details: in vivo
[25] = Toxicity in C57BL/6 mouse assessed as effect on distribution of goblet cells upto 180 mg/kg, sc observed after 4 and 72 hrs by hematoxylin and eosin staining based microscopy; type: organism-based; details: in vivo
[26] = Toxicity in C57BL/6 mouse assessed as epithelial hyperplasia upto 180 mg/kg, sc observed after 4 and 72 hrs by hematoxylin and eosin staining based microscopy; type: organism-based; details: in vivo
[27] = Toxicity in C57BL/6 mouse assessed as inflammation of intestinal submucosa upto 180 mg/kg, sc observed after 4 and 72 hrs by hematoxylin and eosin staining based microscopy; type: organism-based; details: in vivo
[28] = Toxicity in C57BL/6 mouse assessed as effect on hepatic labyrinth of hepatocytes upto 180 mg/kg, sc observed after 4 and 72 hrs by hematoxylin and eosin staining based microscopy; type: organism-based; details: in vivo
[29] = tested on: Cystic fibrosis transmembrane conductance regulator (Homo sapiens), P13569 [F508del]; assay: Corrector activity at CFTR F508del mutant (unknown origin) transfected in human HEK293 membrane cells assessed as increase in CFTR F508del level at 10 uM incubated for 24 hrs by using pHTomato probe based fluorescence inverted microscopic analysis; type: cell-based
[30] = tested on: Cystic fibrosis transmembrane conductance regulator (Homo sapiens), P13569 [F508del]; assay: Corrector activity at CFTR F508del mutant (unknown origin) transfected in human HEK293 membrane cells assessed as increase in anion permeability at 3 uM incubated for 24 hrs by using YFP probe based fluorescence inverted microscopic analysis; type: cell-based
[31] = target: Phosphatidylinositol 4-kinase beta (Homo sapiens, UniProt Q9UBF8); assay: Inhibition of recombinant human full length His6-tagged PI4KIII beta expressed in Sf9 cells incubated for 0 mins in presence of [gamma-33P ATP] by scintillation counting method
Phosphatidylinositol 4-kinase beta, sequence (Q9UBF8 whole entry): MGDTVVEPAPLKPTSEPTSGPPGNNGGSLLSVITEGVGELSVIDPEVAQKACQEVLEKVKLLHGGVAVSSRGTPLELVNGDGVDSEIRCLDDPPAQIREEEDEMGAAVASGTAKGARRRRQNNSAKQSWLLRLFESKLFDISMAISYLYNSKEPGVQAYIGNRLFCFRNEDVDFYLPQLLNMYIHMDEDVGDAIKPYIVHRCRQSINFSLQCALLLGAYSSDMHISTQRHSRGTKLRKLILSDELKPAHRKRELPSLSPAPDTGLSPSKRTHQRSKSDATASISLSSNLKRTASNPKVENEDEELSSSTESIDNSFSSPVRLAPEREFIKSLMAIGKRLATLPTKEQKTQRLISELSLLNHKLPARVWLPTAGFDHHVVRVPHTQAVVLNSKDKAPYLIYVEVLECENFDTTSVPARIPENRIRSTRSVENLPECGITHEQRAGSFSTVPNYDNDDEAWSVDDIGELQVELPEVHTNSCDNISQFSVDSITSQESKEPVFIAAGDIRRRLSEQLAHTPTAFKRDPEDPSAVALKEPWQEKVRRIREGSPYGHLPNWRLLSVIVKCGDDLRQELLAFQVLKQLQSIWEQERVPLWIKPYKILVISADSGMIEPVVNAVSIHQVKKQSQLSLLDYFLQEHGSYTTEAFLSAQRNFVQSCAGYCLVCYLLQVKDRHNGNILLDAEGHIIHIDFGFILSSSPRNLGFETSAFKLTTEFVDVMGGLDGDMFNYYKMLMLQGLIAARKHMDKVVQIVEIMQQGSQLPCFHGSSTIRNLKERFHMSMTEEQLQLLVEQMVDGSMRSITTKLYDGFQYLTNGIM

[32] = Enterovirus A, RD, read-out: EC50

Activity [1]: Active
SMILES: CC(=O)c1cccc(Nc2nc(-c3sc(NC(=O)c4ccccc4)nc3C)cs2)c1

SMILES: CC(=O)Nc1nc(C)c(-c2csc(NCCO)n2)s1
EC50 [2, 32]: 12.6 µM
CC50 [3]: 333 µM

SMILES: C=CC(=O)Nc1nc(-c2sc(NC(C)=O)nc2C)cs1
EC50 [2, 32]: 1.89 µM
CC50 [3]: 6.01 µM

SMILES: CC(=O)Nc1nc(C)c(-c2csc(NC(=O)CBr)n2)s1
EC50 [2]: Not Active

SMILES: CC(=O)Nc1nc(C)c(-c2csc(N(CCO)c3cccc(C(C)=O)c3)n2)s1
EC50 [2]: Not Active

solubility [4]: 0.02 µM (≈ 0.00914 µg/mL)
Papp [5]: 81 nm/s
R% [6]: 37.9%
remaining at 1 h, 50 µM [7]: 98%
half-life [8]: 3.61 days
Kd [9]: 11.7 µM
Bmax [10]: 88.82
SMILES: COc1ccc(Cl)cc1Nc1nc(-c2sc(NC(=O)c3ccccc3)nc2C)cs1

SMILES: CC(=O)c1cccc(N(CCO)c2nc(-c3sc(NC(=O)C(C)(C)C)nc3C)cs2)c1
EC90 ([2]; Enterovirus A, RD): 5.78 µM
EC50 [2, 32]: < 0.43 µM
CC50 [3]: 28.9 µM
selectivity ratio [11]: > 67.2
EC50 [12]: 6.6 µM
CC50 [13]: > 218 µM
EC50 [14]: 6.1 µM
CC50 [15]: 16.8 µM
EC50 [16]: > 9.1 µM
CC50 [17]: 16.8 µM
Activity [1]: Active
solubility ([4]; read-out: solubility): 0.1 µM (≈ 0.0459 µg/mL)
R% [6]: < 0.1%
remaining at 1 h, 50 µM [7]: 98%
half-life [8]: 24.2 days
Kd [9]: 18.5 µM
Bmax [10]: 81.73
Activity [18]: Non-Toxic
Activity [19]: Non-Toxic
Activity [20]: Non-Toxic
Activity [21]: Non-Toxic
Activity [22]: Non-Toxic
Activity [23]: Non-Toxic
Activity [24]: Non-Toxic
Activity [25]: Non-Toxic
Activity [26]: Non-Toxic
Activity [27]: Non-Toxic
Activity [28]: Non-Toxic
Activity [29]: Active
Activity [30]: Active

Activity [1]: Active
SMILES: CC(=O)c1cccc(Nc2nc(-c3sc(NC(=O)OC(C)(C)C)nc3C)cs2)c1

Activity [1]: Active
Activity [29]: Active
Activity [30]: Active
SMILES: Cc1nc(NC(=O)C(C)(C)C)sc1-c1csc(N(CCO)C2CCCCC2)n1
EC50 [2, 32]: 4.96 µM
CC50 [3]: 4.46 µM

SMILES: CCC(=O)Nc1nc(-c2sc(NC(C)=O)nc2C)cs1
EC50 [2]: Not Active

SMILES: CC(=O)Nc1nc(C)c(-c2csc(NC(=O)/C=C/C(C)C)n2)s1
EC50 [2, 32]: 107 µM
CC50 [3]: 172 µM

SMILES: CC(=O)Nc1nc(C)c(-c2csc(N(C)C3CCCCC3)n2)s1
EC50 [2, 32]: 0.88 µM
CC50 [3]: 19.4 µM

SMILES: Cc1nc(NC(=O)C(C)(C)C)sc1-c1csc(NCCC(=O)O)n1
EC50 [2, 32]: 6.48 µM
CC50 [3]: > 271 µM

IC50 [31]: Not Active
SMILES: C=CS(=O)(=O)Nc1nc(-c2sc(NC(C)=O)nc2C)cs1
EC50 [2, 32]: > 290 µM

SMILES: Cc1nc(NC(=O)C(C)(C)C)sc1-c1csc(NCC(=O)O)n1
EC50 [2, 32]: 5.31 µM
CC50 [3]: > 282 µM

SMILES: Cc1nc(NC(=O)C(C)(C)C)sc1-c1csc(NCCCC(=O)O)n1
EC50 [2, 32]: 7.27 µM
CC50 [3]: 261 µM

SMILES: CC(=O)Nc1nc(C)c(-c2csc(N(CCO)C3CCCCC3)n2)s1
EC50 [2, 32]: 1.1 µM
CC50 [3]: 16.4 µM
EC50 [12]: 16.1 µM
CC50 [13]: 20.8 µM
EC50 [14]: > 263 µM
CC50 [15]: > 4.51 µM
EC50 [16]: 6.24 µM
CC50 [17]: 4.51 µM

Activity [1]: Active
Activity [29]: Active
Activity [30]: inactive
SMILES: Cc1nc(NC(=O)C(C)(C)C)sc1-c1csc(NCCO)n1
EC50 [2, 32]: 1.83 µM
CC50 [3]: 361 µM
EC50 [12]: 2.3 µM
CC50 [13]: > 293 µM
EC50 [14]: 5.4 µM
CC50 [15]: 41.2 µM
EC50 [16]: 3.8 µM
CC50 [17]: 41.2 µM

SMILES: Cc1nc(NC(=O)OC(C)(C)C)sc1-c1csc(NCCO)n1
EC50 [2, 32]: 11.4 µM
CC50 [3]: > 421 µM

SMILES: Cc1nc(NC(=O)c2ccccc2)sc1-c1csc(NCCO)n1
EC50 [2]: Not Active

SMILES: CC(=O)Nc1nc(C)c(-c2csc(NC3CCCCC3)n2)s1
EC50 [2, 32]: 1.1 µM
CC50 [3]: 25.5 µM

Activity [1]: Active
Activity [29]: Active
Activity [30]: Active
SMILES: Cc1nc(NC(=O)C(C)(C)C)sc1-c1csc(Nc2cccc(C(=O)O)c2)n1
EC50 [2, 32]: 0.42 µM
CC50 [3]: 32.1 µM
EC50 [12]: 17 µM
CC50 [13]: 111 µM
EC50 [14]: 9.7 µM
CC50 [15]: 36.3 µM
EC50 [16]: 15.3 µM
CC50 [17]: 36.3 µM

SMILES: CC(=O)Nc1nc(C)c(-c2csc(NC3CCC(C)CC3)n2)s1 (stereo not given)
EC50 [2, 32]: 0.34 µM
CC50 [3]: 10.9 µM
